Measured values: ChEMBL document CHEMBL1146901, “Synthesis and pharmacological study of novel pyrido-quinazolone analogues as anti-fungal, antibacterial, and anticancer agents” (Bioorg Med Chem Lett, 2006)

Key:
Staphylococcus aureus = test: Antibacterial activity against Staphylococcus aureus by disk diffusion method; type: functional
Pseudomonas aeruginosa = test: Antibacterial activity against Pseudomonas aeruginosa by disk diffusion method; type: functional
Klebsiella pneumoniae = test: Antibacterial activity against Klebsiella pneumoniae by disk diffusion method; type: functional
MCF7 [1] = test: Cytotoxicity against human MCF7 cells assessed as decrease in number of cells relative to control; type: functional, cell-based
Aspergillus flavus [2] = test: Antifungal activity against Aspergillus flavus at 20 ug/ml by agar plate method; type: functional
Aspergillus niger [3] = test: Antifungal activity against Aspergillus niger at 100 ug/ml by agar plate method; type: functional
Aspergillus niger [4] = test: Antifungal activity against Aspergillus niger at 20 ug/ml by agar plate method; type: functional
Aspergillus flavus [5] = test: Antifungal activity against Aspergillus flavus at 10 ug/ml by agar plate method; type: functional
Aspergillus niger [6] = test: Antifungal activity against Aspergillus niger at 50 ug/ml by agar plate method; type: functional
Aspergillus flavus [7] = test: Antifungal activity against Aspergillus flavus at 50 ug/ml by agar plate method; type: functional
MCF7 [8] = test: Cytotoxicity against human MCF7 cells; type: functional, cell-based
Aspergillus niger [9] = test: Antifungal activity against Aspergillus niger at 10 ug/ml by agar plate method; type: functional
Aspergillus flavus [10] = test: Antifungal activity against Aspergillus flavus at 100 ug/ml by agar plate method; type: functional

SMILES	inhibition zone (IZ) (Staphylococcus aureus) [mm]	inhibition zone (IZ) (Pseudomonas aeruginosa) [mm]	inhibition zone (IZ) (Klebsiella pneumoniae) [mm]	Activity (MCF7 [1])	inhibition at 20 µg/mL (Aspergillus flavus [2]) [%]	inhibition at 100 µg/mL (Aspergillus niger [3]) [%]	inhibition at 20 µg/mL (Aspergillus niger [4]) [%]	inhibition at 10 µg/mL (Aspergillus flavus [5]) [%]	inhibition at 50 µg/mL (Aspergillus niger [6]) [%]	inhibition at 50 µg/mL (Aspergillus flavus [7]) [%]	IC50 (MCF7 [8]) [µM]	inhibition at 10 µg/mL (Aspergillus niger [9]) [%]	inhibition at 100 µg/mL (Aspergillus flavus [10]) [%]
COc1ccc(-n2c(-c3ccccc3)c(-c3ccccc3)c3cc4c(cc3c2=O)C(c2ccccc2)NC(=O)N4)cc1 (centres undefined)	6	6	6	Not toxic	≤ 25	≤ 25	≤ 25	≤ 25	≤ 25	≤ 25	11.4	≤ 25	≤ 25
O=C1NCc2cc3c(=O)n(-c4ccccc4)c(-c4ccccc4)c(-c4ccccc4)c3cc2N1	6	6	6	–	≤ 25	≤ 25	≤ 25	≤ 25	≤ 25	≤ 25	8.5	≤ 25	≤ 25
O=C1NCc2cc3c(=O)n(-c4ccc(Cl)cc4)c(-c4ccccc4)c(-c4ccccc4)c3cc2N1	6	6	6	Not toxic	≤ 25	≤ 25	≤ 25	≤ 25	≤ 25	≤ 25	3.7	≤ 25	≤ 25
O=C1Nc2cc3c(-c4ccccc4)c(-c4ccccc4)n(-c4ccc(Cl)cc4)c(=O)c3cc2C(c2ccccc2)N1 (centres undefined)	10	10	10	Toxic	76.7	90	70	60	80	83.3	25.6	50	93.3
O=C1Nc2cc3c(-c4ccccc4)c(-c4ccccc4)n(-c4ccccc4)c(=O)c3cc2C(c2ccccc2)N1 (centres undefined)	>14	10	6	Toxic	60	95	75	53.3	90	73.3	4.4	60	86.7
